This note sets out measurements from patent US20110039763A1, “TARGETED ANTIMICROBIAL MOIETIES” (C3 JIAN, INC., priority 2009, published 2011).

For test [1], the system named is microorganisms. In words: Targeting peptide binding to target microorganisms (Tables 3, 10, 12). As to conditions: microorganism(s) the targeting peptide binds; binding in aqueous buffers varied with peptide solubility, preferably 1x PBS.
Test [2] has as its system microorganisms. The experiment in a line: Peptide activities: targeting/binding, antimicrobial, growth or phenotype altering (Tables 7, 8). In kind it is cell-based. As to conditions: peptides having multiple activities.
The test system of test [3] is microorganisms. In words: Morphology, biofilm and growth disrupting peptides (Table 5). In kind it is cell-based. Details: key: A: Peptide aggregates; B: Less hyphal formation; Clumps; Diffuse clumps and small polyps; F: Diffuse growth; H: Thin; I: Growth inhibition; Microcolony formation; Rippled; Small polyps; Thick; W: Halo formation on top, microlonies on bottom. An excerpt:
In certain embodiments peptides that induce alterations in phenotype or other biological activities can also be used as antimicrobial effector moieties.

“Also recorded” adds a separate entry of the source.

Consider “PF-414: peptide having multiple activities (chain 1 LLNKKLE; chain 2 LLNKKLE; Peptide with targeting and/or antimicrobial activity)”, for which the “Target(s)” value in test [1] was “E. coli; also recorded: C. albicans; also recorded: C. jeikeium”. In test [2], the Activities result is “G B”. Moreover, the “Organism, effect: S. pneumoniae” value in test [3] (S. pneumoniae) was “S. pneumoniae (H)”.

In the case of “PF-416: peptide having multiple activities (chain 1 SKAGLYGKIERSDKRE; chain 2 SKAGLYGKIERSDKRE; Peptide with targeting and/or antimicrobial activity)”, the “Target(s)” value in test [1] is on record as “S. pneumoniae; also recorded: C. jeikeium”. Besides, the Activities result in test [2] is “G B”. For the same substance, in test [3] (S. pneumoniae), the “Organism, effect: S. pneumoniae” value is given as “S. pneumoniae (H)”.

As to “PF-417: peptide having multiple activities (chain 1 DSYFRS; chain 2 DSYFRS; Peptide with targeting and/or antimicrobial activity)”, in test [1], the “Target(s)” value is “S. epidermidis; also recorded: C. jeikeium; also recorded: C. jejuni”. In test [2], the Activities entry is listed as “G B”. For the same substance, in test [3] (MRSA), the “Organism, effect: MRSA” value was “MRSA (M)”. Besides, the “Organism, effect: S. epidermidis” value in test [3] (S. epidermidis) was “S. epidermidis (M)”. In addition, the “Organism, effect: S. pneumoniae” value in test [3] (S. pneumoniae) is “S. pneumoniae (M)”.

With “PF-421: peptide having multiple activities (chain 1 KHCFEITDKTDVV; chain 2 KHCFEITDKTDVV; Peptide with targeting and/or antimicrobial activity)”, in test [1], the “Target(s)” value is listed as “C. jeikeium”. The Activities entry in test [2] is on record as “G B”. Moreover, the “Organism, effect” value in test [3] (S. pneumoniae) was “S. pneumoniae (H)”.

Regarding “PF-423: peptide having multiple activities (chain 1 AGKKERLLSFREQFLNKNKKK; chain 2 AGKKERLLSFREQFLNKNKKK; Peptide with targeting and/or antimicrobial activity)”, the “Target(s)” value in test [1] is on record as “S. epidermidis; also recorded: M. luteus; also recorded: E. coli; also recorded: S. pneumoniae; also recorded: E. faecalis; also recorded: C. jeikeium”. The Activities result in test [2] is on record as “G B”. Besides, the “Organism, effect” value in test [3] (S. pneumoniae) was “S. pneumoniae (H)”.

Consider “PF-424: peptide having multiple activities (chain 1 IAAFVTSRAFSDTVSPI; chain 2 IAAFVTSRAFSDTVSPI; Peptide with targeting and/or antimicrobial activity)”, for which the “Target(s)” value in test [1] is “S. epidermidis and C. albicans and MRSA”. In addition, the Activities result in test [2] is on record as “G B”. Moreover, the “Organism, effect” value in test [3] (S. pneumoniae) is listed as “S. pneumoniae (H)”.

For “PF-425: peptide having multiple activities (chain 1 MMELVLKTIIGPIVVGVVLRIVDKWLNKDK; chain 2 MMELVLKTIIGPIVVGVVLRIVDKWLNKDK; Peptide with targeting and/or antimicrobial activity)”, the “Target(s)” value in test [1] was “S. epidermidis and M. luteus and E. coli and P. aeruginosa and C. albicans and MRSA and S. pneumoniae and C. jeikeium”. The Activities result in test [2] was “G B”. The “Organism, effect” value in test [3] (C. albicans) is listed as “C. albicans (A)”; in test [3] (C. jejuni), “C. jejuni (D)”; in test [3] (E. coli) it was “E. coli (C)”; in test [3] (E. faecalis) it was “E. faecalis (D)”; in test [3] (MRSA) it was “MRSA (D)”; in test [3] (P. aeruginosa) it was “P. aeruginosa (A)”. The entries for the “Organism, effect” value in test [3] (S. epidermidis) and in test [3] (S. pneumoniae) were “S. epidermidis (D)” and “S. pneumoniae (D)”, respectively.

Take “PF-426: peptide having multiple activities (chain 1 MLQKYTQMISVTKCIITKNKKTQENVDAYN; chain 2 MLQKYTQMISVTKCIITKNKKTQENVDAYN; Peptide with targeting and/or antimicrobial activity)”: in test [1], the “Target(s)” value was “S. epidermidis and E. coli and P. aeruginosa and C. albicans and MRSA and S. pneumoniae and E. faecalis and C. jeikeium”. For the same substance, in test [2], the Activities entry is given as “G B”. The “Organism, effect” value is listed as “C. albicans (A)” in test [3] (C. albicans); “C. jejuni (D)” in test [3] (C. jejuni); “E. coli (C)” in test [3] (E. coli); “E. faecalis (D)” in test [3] (E. faecalis); “MRSA (D)” in test [3] (MRSA); “S. epidermidis (D)” in test [3] (S. epidermidis). For the same substance, in test [3] (S. pneumoniae), the “Organism, effect” value is “S. pneumoniae (D)”.

With “PF-427: peptide having multiple activities (chain 1 YVLEYHGLRATQDVDAFMAL; chain 2 YVLEYHGLRATQDVDAFMAL; Peptide with targeting and/or antimicrobial activity)”, the “Target(s)” value in test [1] was “M. luteus; also recorded: P. aeruginosa; also recorded: C. albicans; also recorded: C. jejuni”. Also, in test [2], the Activities entry is listed as “G B”. The “Organism, effect” value was “E. coli (C)” in test [3] (E. coli), “E. faecalis (C)” in test [3] (E. faecalis), “MRSA (C)” in test [3] (MRSA) and “S. pneumoniae (R)” in test [3] (S. pneumoniae).

For the substance “PF-428: peptide having multiple activities (chain 1 ENEESIF; chain 2 ENEESIF; Peptide with targeting and/or antimicrobial activity)”, the “Target(s)” value in test [1] is “S. epidermidis; also recorded: C. albicans; also recorded: E. faecalis; also recorded: C. jeikeium”. In test [2], the Activities entry was “G B”. In addition, in test [3] (S. pneumoniae), the “Organism, effect” value is listed as “S. pneumoniae (H)”.

For the substance “PF-429: peptide having multiple activities (chain 1 AATLICVGSGIMSSL; chain 2 AATLICVGSGIMSSL; Peptide with targeting and/or antimicrobial activity)”, the “Target(s)” value in test [1] was “S. epidermidis; also recorded: S. pneumoniae; also recorded: C. jeikeium”. The Activities entry in test [2] is reported as “G B”. In addition, the “Organism, effect” value in test [3] (E. faecalis) is “E. faecalis (C)”; in test [3] (MRSA), “MRSA (C)”; in test [3] (S. epidermidis), “S. epidermidis (C)”; in test [3] (S. pneumoniae) it was “S. pneumoniae (M)”.

With “PF-430: peptide having multiple activities (chain 1 AVVCGYLAYTATS; chain 2 AVVCGYLAYTATS; Peptide with targeting and/or antimicrobial activity)”, in test [1], the “Target(s)” value is “S. epidermidis; also recorded: M. luteus; also recorded: E. coli; also recorded: S. pneumoniae; also recorded: E. faecalis; also recorded: C. jeikeium; also recorded: C. jejuni”. Moreover, in test [2], the Activities entry is given as “G B”. Also, the entries for the “Organism, effect” value in test [3] (MRSA), in test [3] (S. epidermidis) and in test [3] (S. pneumoniae) were “MRSA (M)”, “S. epidermidis (M)” and “S. pneumoniae (M)”, respectively.

As to “PF-433: peptide having multiple activities (chain 1 MRKEFHNVLSSGQLLADKRPARDYNRK; chain 2 MRKEFHNVLSSGQLLADKRPARDYNRK; Peptide with targeting and/or antimicrobial activity)”, the “Target(s)” value in test [1] is “S. epidermidis; also recorded: E. coli; also recorded: S. pneumoniae; also recorded: C. jeikeium”. In test [2], the Activities entry is listed as “G B”. Also, the “Organism, effect” value in test [3] (S. pneumoniae) is listed as “S. pneumoniae (H)”.

Consider “PF-434: peptide having multiple activities (chain 1 GQLLADKRPARDYNRK; chain 2 GQLLADKRPARDYNRK; Peptide with targeting and/or antimicrobial activity)”, for which the “Target(s)” value in test [1] is listed as “S. epidermidis; also recorded: M. luteus; also recorded: S. pneumoniae; also recorded: C. jeikeium”. Besides, the Activities entry in test [2] is on record as “G B”. In addition, in test [3] (S. pneumoniae), the “Organism, effect” value is on record as “S. pneumoniae (S)”.

Consider “PF-444: peptide having multiple activities (MAAKLWEEGKMVYASSASMTKRLKLAMSKV; Peptide with targeting and/or antimicrobial activity)”, for which the “Target(s)” value in test [1] was “M. luteus; also recorded: C. albicans; also recorded: S. pneumoniae; also recorded: C. jeikeium”. Besides, the Activities entry in test [2] is “G B”. Besides, the “Organism, effect” value in test [3] (E. coli) was “E. coli (R)”; in test [3] (E. faecalis), “E. faecalis (C)”; in test [3] (MRSA), “MRSA (C)”; in test [3] (S. epidermidis), “S. epidermidis (C)”; in test [3] (S. pneumoniae) it was “S. pneumoniae (R)”.

As to “PF-445: peptide having multiple activities (ASMTKRLKLAMSKV; Peptide with targeting and/or antimicrobial activity)”, the “Target(s)” value in test [1] was “M. luteus; also recorded: S. pneumoniae; also recorded: C. jeikeium”. In addition, the Activities entry in test [2] is reported as “G B”. For the same substance, the “Organism, effect” value in test [3] (S. pneumoniae) is given as “S. pneumoniae (M)”.

With “PF-446: peptide having multiple activities (SGNEKV; Peptide with targeting and/or antimicrobial activity)”, the “Target(s)” value in test [1] was “M. luteus; also recorded: C. jeikeium”. For the same substance, the Activities result in test [2] is reported as “G B”. Also, the “Organism, effect” value in test [3] (S. pneumoniae) is “S. pneumoniae (H)”.

For “PF-447: peptide having multiple activities (IDKSRNKDQFSHIFGLYNICSG; Peptide with targeting and/or antimicrobial activity)”, the “Target(s)” value in test [1] was “S. epidermidis; also recorded: M. luteus; also recorded: E. coli; also recorded: S. pneumoniae”. The Activities entry in test [2] is given as “G B”. The “Organism, effect” value in test [3] (E. faecalis) is “E. faecalis (C)”; in test [3] (MRSA), “MRSA (C)”; in test [3] (S. epidermidis), “S. epidermidis (C)”; in test [3] (S. pneumoniae) it was “S. pneumoniae (C)”.
